Tests used:
[1] = molecular target: T1, ATR kinase (full-length ATR) (Homo sapiens, UniProt Q13535); assay: ATR Inhibition Assay (radioactive-phosphate incorporation); assay type: biochemical; conditions: Ki(app); 5 nM full-length ATR, 10 μM ATP, 25° C.
T1 construct: Assays were carried out at 25° C. in the presence of 5 nM full-length ATR
Experimental: Compounds were screened for their ability to inhibit ATR kinase using a radioactive-phosphate incorporation assay. Assays were carried out in a mixture of 50 mM Tris/HCl (pH 7.5), 10 mM MgCl2 and 1 mM DTT. Final substrate concentrations were 10 μM [γ-33P]ATP (3 mCi 33P ATP/mmol ATP, Perkin Elmer) and 800 μM target peptide (ASELPASQPQPFSAKKK).
Assays were carried out at 25° C. in the presence of 5 nM full-length ATR. An assay stock buffer solution was prepared containing all of the reagents listed above, with the exception of ATP and the test compound of interest. 13.5 μL of the stock solution was placed in a 96 well plate followed by addition of 2 μL of DMSO stock containing serial dilutions of the test compound (typically starting from a final concentration of 15 μM with 3-fold serial dilutions) in duplicate (final DMSO concentration 7%). The plate was pre-incubated for 10 minutes at 25° C. and the reaction initiated by addition of 15 μL [γ-33P]ATP (final concentration 10 μM).
The reaction was stopped after 24 hours by the addition of 30 μL 0.1M phosphoric acid containing 2 mM ATP. A multiscreen phosphocellulose filter 96-well plate (Millipore, Cat no. MAPHN0B50) was pretreated with 100 μL 0.2M phosphoric acid prior to the addition of 45 μL of the stopped assay mixture. The plate was washed with 5×200PL 0.2M phosphoric acid. After drying, 100 μL Optiphase ‘SuperMix’ liquid scintillation cocktail (Perkin Elmer) was added to the well prior to scintillation counting (1450 Microbeta Liquid Scintillation Counter, Wallac).
After removing mean background values for all of the data points, Ki(app) data were calculated from non-linear regression analysis of the initial rate data using the Prism software package (GraphPad Prism version 3.0cx for Macintosh, GraphPad Software, San Diego Calif., USA).
Compounds with a Ki value of <0.01 μM are marked with “+++.” Compounds with a Ki value >0.01 μM but <1 μM are marked with “++.” Compounds with a Ki value >1 μM but <5 μM are marked with “+.”

[2] = test system: HCT116 colorectal cancer cells; assay: Cisplatin Sensitization Assay (96 h cell viability MTS); assay type: cell-based; conditions: concentration of compound required to reduce the IC50 of Cisplatin alone by at least 3-fold; HCT116, 96 h MTS
Experimental: Compounds can be screened for their ability to sensitize HCT116 colorectal cancer cells to Cisplatin using a 96 h cell viability (MTS) assay. […] Compounds and Cisplatin are then both added simultaneously to the cell media in 2-fold serial dilutions from a top final concentration of 10 μM as a full matrix of concentrations in a final cell volume of 200 μl, and the cells are then incubated at 37° C. in 5% CO2. After 96 h, 40 μl of MTS reagent (Promega G358a) is added to each well and the cells are incubated for 1 h at 37° C. in 5% CO2. Finally, absorbance is measured at 490 nm using a SpectraMax Plus 384 reader (Molecular Devices) and the concentration of compound required to reduce the IC50 of Cisplatin alone by at least 3-fold (to 1 decimal place) can be reported.
Compounds with a Cisplatin sensitization value of <0.02 μM are marked with “+++.” Compounds with a Cisplatin sensitization value >0.02 μM but <0.2 μM are marked with “++.” Compounds with a Cisplatin sensitization value >0.2 μM but <5 μM are marked with “+.”

[3] = molecular target: T2, ATR kinase, in the presence of partner proteins ATRIP, CLK2 and TopBP1 (Homo sapiens, UniProt Q13535); assay: ATR-Complex Inhibition Assay (radioactive-phosphate incorporation); assay type: biochemical; conditions: Ki(app); 4 nM full-length ATR with ATRIP, CLK2 and TopBP1(A891-S1105), 10 μM ATP, 25° C.
T2 construct: in the presence of 4 nM full-length ATR, 40 nM full-length ATRIP
T2 sequence (Q13535 whole entry): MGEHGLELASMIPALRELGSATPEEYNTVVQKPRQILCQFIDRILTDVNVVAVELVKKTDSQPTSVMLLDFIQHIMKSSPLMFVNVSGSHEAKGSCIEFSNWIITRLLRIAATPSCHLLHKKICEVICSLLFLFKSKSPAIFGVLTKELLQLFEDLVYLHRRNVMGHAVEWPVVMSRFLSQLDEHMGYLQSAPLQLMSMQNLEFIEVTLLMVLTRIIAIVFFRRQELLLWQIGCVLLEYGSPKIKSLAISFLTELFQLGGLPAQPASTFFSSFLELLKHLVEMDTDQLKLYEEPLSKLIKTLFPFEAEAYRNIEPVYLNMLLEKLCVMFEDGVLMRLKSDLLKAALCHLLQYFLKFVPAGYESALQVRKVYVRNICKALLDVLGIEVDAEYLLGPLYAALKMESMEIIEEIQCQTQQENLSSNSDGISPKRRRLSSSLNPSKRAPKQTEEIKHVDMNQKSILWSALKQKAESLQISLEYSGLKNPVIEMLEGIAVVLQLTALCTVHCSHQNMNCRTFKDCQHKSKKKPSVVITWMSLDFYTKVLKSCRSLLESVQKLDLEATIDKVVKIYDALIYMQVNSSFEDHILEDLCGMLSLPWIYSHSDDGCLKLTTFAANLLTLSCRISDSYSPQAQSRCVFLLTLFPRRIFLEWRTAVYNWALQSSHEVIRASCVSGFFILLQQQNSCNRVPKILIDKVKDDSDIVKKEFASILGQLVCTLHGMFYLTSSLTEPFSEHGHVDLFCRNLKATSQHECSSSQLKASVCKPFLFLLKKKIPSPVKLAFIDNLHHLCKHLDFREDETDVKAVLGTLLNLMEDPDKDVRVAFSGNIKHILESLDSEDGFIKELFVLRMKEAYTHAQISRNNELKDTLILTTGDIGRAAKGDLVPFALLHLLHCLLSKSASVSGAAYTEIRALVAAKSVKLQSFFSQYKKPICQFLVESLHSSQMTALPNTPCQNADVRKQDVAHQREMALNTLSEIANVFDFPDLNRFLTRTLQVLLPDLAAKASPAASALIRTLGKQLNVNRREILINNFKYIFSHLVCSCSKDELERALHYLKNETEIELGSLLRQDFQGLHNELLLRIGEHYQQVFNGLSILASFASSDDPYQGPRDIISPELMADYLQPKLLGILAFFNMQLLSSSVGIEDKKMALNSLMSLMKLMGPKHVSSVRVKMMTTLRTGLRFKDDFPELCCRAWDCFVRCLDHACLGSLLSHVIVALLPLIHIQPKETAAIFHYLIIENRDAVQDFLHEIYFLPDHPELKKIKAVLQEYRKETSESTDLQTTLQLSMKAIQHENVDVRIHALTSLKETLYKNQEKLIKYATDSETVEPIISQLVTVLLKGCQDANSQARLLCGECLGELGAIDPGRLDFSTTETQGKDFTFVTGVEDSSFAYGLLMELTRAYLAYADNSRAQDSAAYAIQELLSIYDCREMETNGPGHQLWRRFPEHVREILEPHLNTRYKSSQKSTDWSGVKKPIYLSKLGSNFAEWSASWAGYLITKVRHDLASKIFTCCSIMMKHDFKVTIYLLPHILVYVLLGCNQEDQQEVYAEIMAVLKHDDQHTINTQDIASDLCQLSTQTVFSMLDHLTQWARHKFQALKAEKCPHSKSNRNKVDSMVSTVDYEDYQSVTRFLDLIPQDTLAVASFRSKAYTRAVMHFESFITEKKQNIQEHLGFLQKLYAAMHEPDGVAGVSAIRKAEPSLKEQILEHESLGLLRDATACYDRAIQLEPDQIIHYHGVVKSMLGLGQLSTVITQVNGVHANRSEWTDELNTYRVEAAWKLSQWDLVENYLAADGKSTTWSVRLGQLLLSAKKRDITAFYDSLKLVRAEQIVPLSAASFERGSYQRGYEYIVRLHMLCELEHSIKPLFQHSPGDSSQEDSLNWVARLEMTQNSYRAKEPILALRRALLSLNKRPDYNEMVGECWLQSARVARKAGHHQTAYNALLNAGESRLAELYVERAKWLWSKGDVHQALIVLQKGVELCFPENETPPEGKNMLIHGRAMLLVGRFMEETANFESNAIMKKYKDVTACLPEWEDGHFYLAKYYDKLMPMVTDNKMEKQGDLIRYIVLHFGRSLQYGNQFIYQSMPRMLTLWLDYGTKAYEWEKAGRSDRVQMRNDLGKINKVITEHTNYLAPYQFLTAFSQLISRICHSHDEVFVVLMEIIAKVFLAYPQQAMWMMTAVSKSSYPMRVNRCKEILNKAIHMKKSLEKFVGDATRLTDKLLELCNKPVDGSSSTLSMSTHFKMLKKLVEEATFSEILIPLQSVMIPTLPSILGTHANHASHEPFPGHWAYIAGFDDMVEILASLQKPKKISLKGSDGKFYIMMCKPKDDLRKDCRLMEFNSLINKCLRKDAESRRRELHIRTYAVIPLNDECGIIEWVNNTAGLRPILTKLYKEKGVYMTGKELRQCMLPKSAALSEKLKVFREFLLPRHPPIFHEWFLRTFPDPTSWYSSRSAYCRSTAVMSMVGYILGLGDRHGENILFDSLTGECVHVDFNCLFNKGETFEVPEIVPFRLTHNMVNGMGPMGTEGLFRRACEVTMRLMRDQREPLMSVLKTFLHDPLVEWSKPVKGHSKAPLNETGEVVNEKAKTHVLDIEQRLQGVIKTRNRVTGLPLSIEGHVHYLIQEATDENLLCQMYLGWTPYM
T2 sequence (Q8WXE1 whole entry partner): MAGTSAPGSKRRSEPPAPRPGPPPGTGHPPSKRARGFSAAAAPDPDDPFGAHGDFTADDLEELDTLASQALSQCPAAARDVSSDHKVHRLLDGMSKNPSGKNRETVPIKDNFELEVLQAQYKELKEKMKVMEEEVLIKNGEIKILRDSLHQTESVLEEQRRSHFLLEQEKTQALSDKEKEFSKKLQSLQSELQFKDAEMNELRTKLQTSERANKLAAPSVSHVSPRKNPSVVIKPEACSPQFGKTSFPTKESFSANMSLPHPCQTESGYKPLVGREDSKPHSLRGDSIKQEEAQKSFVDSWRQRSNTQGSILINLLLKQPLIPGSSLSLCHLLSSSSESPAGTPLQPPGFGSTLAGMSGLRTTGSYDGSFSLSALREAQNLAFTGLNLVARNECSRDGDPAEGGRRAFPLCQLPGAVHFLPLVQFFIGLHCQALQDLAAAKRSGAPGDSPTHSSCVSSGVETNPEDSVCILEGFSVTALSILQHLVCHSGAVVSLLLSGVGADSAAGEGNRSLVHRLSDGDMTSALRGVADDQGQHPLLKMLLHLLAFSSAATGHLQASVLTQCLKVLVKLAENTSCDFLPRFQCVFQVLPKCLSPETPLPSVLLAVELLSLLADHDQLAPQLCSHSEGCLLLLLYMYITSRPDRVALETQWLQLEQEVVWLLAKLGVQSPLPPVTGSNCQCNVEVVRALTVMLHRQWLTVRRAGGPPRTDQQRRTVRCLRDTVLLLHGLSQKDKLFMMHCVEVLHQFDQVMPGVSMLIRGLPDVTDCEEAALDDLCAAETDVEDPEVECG
T2 sequence (Q92547 978-1192 partner limits assumed): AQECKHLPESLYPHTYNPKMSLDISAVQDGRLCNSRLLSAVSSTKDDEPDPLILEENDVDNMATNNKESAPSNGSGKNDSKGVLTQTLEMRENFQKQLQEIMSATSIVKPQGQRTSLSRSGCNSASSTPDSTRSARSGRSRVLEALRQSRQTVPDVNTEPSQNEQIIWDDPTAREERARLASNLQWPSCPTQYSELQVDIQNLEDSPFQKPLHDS
Experimental: Compounds were screened for their ability to inhibit ATR kinase, in the presence of partner proteins ATRIP, CLK2 and TopBP1, using a radioactive-phosphate incorporation assay. Assays were carried out in a mixture of 50 mM Tris/HCl (pH 7.5), 10 mM MgCl2 and 1 mM DTT. Final substrate concentrations were 10 μM [g-33P]ATP (3.5 μCi 33P ATP/nmol ATP, Perkin Elmer, Massachusetts, USA) and 800 μM target peptide (ASELPASQPQPFSAKKK, Isca Biochemicals, Cambridgeshire, UK).
Assays were carried out at 25° C. in the presence of 4 nM full-length ATR, 40 nM full-length ATRIP, 40 nM full-length CLK2 and 600 nM TopBP1(A891-S1105). An enzyme stock buffer solution was prepared containing all of the reagents listed above, with the exception of target peptide, ATP and the test compound of interest. This enzyme stock was pre-incubated for 30 minutes at 25° C. 8.5 μL of the enzyme stock solution was placed in a 96-well plate followed by addition of 5 μl of target peptide and 2 μL of DMSO stock containing serial dilutions of the test compound (typically starting from a final concentration of 1.5 μM with 2.5-fold serial dilutions) in duplicate (final DMSO concentration 7%). The plate was pre-incubated for 10 minutes at 25° C. and the reaction initiated by addition of 15 μL [g-33P]ATP (final concentration 10 μM).
The reaction was stopped after […] by the addition of 30 μL 0.3 M phosphoric acid containing 2 mM ATP. A phosphocellulose filter 96-well plate (Multiscreen HTS MAPHNOB50, Merck-Millipore, Massachusetts, USA) was pretreated with 100 μL 0.1 M phosphoric acid prior to the addition of 45 μL of the stopped assay mixture. The plate was washed with 5×200 μL 0.1 M phosphoric acid. […]
After removing mean background values for all of the data points, Ki(app) data were calculated from non-linear regression analysis of the initial rate data using the Prism software package (GraphPad Prism version 6.0c for Macintosh, GraphPad Software Inc., San Diego, USA). […]

T1 sequence (Q13535 whole entry): as the sequence (Q13535 whole entry) above

| Ki [1] [nM] | Ki [3] [nM] | SMILES | Cisplatin Sensitization Assay [2] |
| --- | --- | --- | --- |
| 10 to 1000 | < 10 | CN1CCC(Oc2ccncc2NC(=O)c2c(N)nc3cccnn23)CC1 [I-A-1, 2-amino-N-(4-((1-methylpiperidin-4-yl)oxy)pyridin-3-yl)imidazo[1,2-b]pyridazine-3-carboxamide] | ++ (Compounds with a Cisplatin sensitization value >0.02 μM but <0.2 μM) |
| 10 to 1000 |  | CN1CCC(Oc2ccncc2NC(=O)c2c(N)nc3ccc(C(F)(F)F)nn23)CC1 [I-A-2, 2-amino-N-(4-((1-methylpiperidin-4-yl)oxy)pyridin-3-yl)-6-(trifluoromethyl)imidazo[1,2-b]pyridazine-3-carboxamide] | ++ (Compounds with a Cisplatin sensitization value >0.02 μM but <0.2 μM) |
| 10 to 1000 |  | CN1CCN(C(=O)C2CCN(c3c(F)cncc3NC(=O)c3c(N)nc4cccnn34)CC2)CC1 [I-A-3, 2-amino-N-(5-fluoro-4-(4-(4-methylpiperazine-1-carbonyl)piperidin-1-yl)pyridin-3-yl)imidazo[1,2-b]pyridazine-3-carboxamide] | +++ (Compounds with a Cisplatin sensitization value of <0.02 μM) |
| 10 to 1000 | < 10 | CCOc1ccncc1NC(=O)c1c(N)nn2ccccc12 [I-B-1, 2-amino-N-(4-ethoxypyridin-3-yl)pyrazolo[1,5-a]pyridine-3-carboxamide] | +++ (Compounds with a Cisplatin sensitization value of <0.02 μM) |
| 1000 to 5000 | < 10 | CN1CCN(C(=O)C2CCN(c3c(F)cncc3NC(=O)c3c(N)nn4ccccc34)CC2)CC1 [I-B-3, 2-amino-N-(5-fluoro-4-(4-(4-methylpiperazine-1-carbonyl)piperidin-1-yl)pyridin-3-yl)pyrazolo[1,5-a]pyridine-3-carboxamide] | + (Compounds with a Cisplatin sensitization value >0.2 μM but <5 μM) |

Source: patent US20150158868A1, “COMPOUNDS USEFUL AS INHIBITORS OF ATR KINASE” (Vertex Pharmaceuticals Incorporated, priority 2013, published 2015)
